From patent US5336485A, “Method for protecting animals against tacrine induced cytotoxic injury using sterol compounds” (priority 1993, dated 1994)
Structures can show the parent of a compound that is named as a salt.

Assays:
rat hepatocytes [1] = test: EMS-induced cytotoxicity (LDH leakage/cell death) in rat hepatocyte suspensions; settings: for Protection From Toxic Injury: EMS 3 h
Protocol: To determine if alpha-TS is a cytoprotective agent under physiological conditions, liver cells were incubated with Waymouth's medium containing approximately 1 mM extracellular Ca^2+ in the presence and absence of alpha-TS.
(§1) At each time-point, rapid separation of viable from non-viable hepatocytes and medium was accomplished by the dibutyl phthalate centrifugation method. Cell viability was monitored hourly by measuring LDH leakage with a Cobas Analyzer and intracellular [K^+ ]with a flame photometer. LDH was routinely measured in the medium while intracellular K^+ was measured in the 10% perchloric acid lysate of viable cells. Lipid peroxidation was determined by measuring TBA reactants in the medium. […] The samples were diluted with 0.3 ml 1% ascorbate in 0.1 M SDS, 0.4 ml ethanol, sonicated and extracted once with 0.8 ml hexane. Next, the hexane extract was evaporated to dryness with N2, the residue dissolved in 2.5% ascorbate in methanol (1 ml) and analyzed (100 μl) by high-performance liquid chromatograph (HPLC). […] The mobile phase, 95% MeOH was run isocratically and the HPLC retention times for delta and alpha-tocopherol were approximately eleven and sixteen minutes, respectively. […] Following the addition of 0.2 ml 4 M HC1, the neutralized KOH-MeOH extracted with 0.8 ml hexane. […] A standard curve for each tocopherol congener was run with every assay. […] Only viable cells were monitored in the laboratory procedures.
To determine the relative cytoprotective potency of various tocopherol derivatives, the effect of varying doses of a tocopherol analog on the protection against EMS-induced toxicity was examined in vitro on rat hepatocyte suspensions. Specifically, the following ionizable tocopherol congeners were tested: alpha-TS, alpha tocopheryl glutarate (alpha-TG), and alpha tocopheryl phosphate (alpha-TP). […] 0.1 nmoles is the lower detection limit.
In vitro experiments were conducted with a variety of different tocopherol and succinate analogs to determine which were protective against EMS induced toxicity. After five hours of incubation with 50 mM EMS and 25μM of a tocopherol or succinate analog, cytoprotection was determined by comparing the percentage of LDH leakage from control hepatocytes (vehicle only, assumed 100% protection) with the EMS only treated cells (assumed 0% protection).
An in vitro experiment with rat hepatocyte suspensions was performed to determine the effect of esterase inhibitors on alpha-TS.
(§2) Rat hepatocyte suspensions were subjected to 50 mM EMS and the percentage of cell death, the percentage of intracellular K^+ (a metabolic parameter as discussed above), the depletion of ATP and the effect on lipid peroxidation were monitored.

rat hepatocytes [2] = test: Cellular alpha-tocopherol and tocopherol ester content of rat hepatocytes; settings: for Hepatocyte Concentration Alpha-T: EMS 3 h
Protocol: as §1
The hepatocytes were subsequently exposed to 50mM EMS for three hours.

male Sprague-Dawley rats = test: CCl4 induced lethality in rats; format: in vivo, rat
Protocol: The in vivo effect of alpha-TS was tested by administering a lethal oral dose of carbon tetrachloride (CC14) to male Sprague-Dawley rats.
In the experiment described in Table 3, a single dose of alpha-TS dissolved in peanut oil:ethanol (3:2) was given to male Sprague-Dawley rats. The dose was given 24 hours prior to an orally administered CCl4 challenge dissolved in peanut oil. Two to nine animals were tested per treatment. The control group comprised rats pretreated with the vehicle only. Survival was monitored for at least 7 days after the toxic insult.
In vivo experiments were performed to determine if the time the ionizable tocopherol analog (alpha-TS) is administered affects the cytoprotective functions. Male Sprague-Dawley rats were given a 100 mg/kg intraperitoneal dose of a tocopherol or succinate analog and were given a lethal dose of CCl4 (2.9g/kg by oral gavage). Table 7 contrasts the times of administration of the tocopherol or succinate analog and the times of administration of the lethal dose of CCl4 with the survival of the rats in the study (3to 6 rats per protective treatment).
Several tocopherol and succinate analogs were tested for CCl4 induced lethality. A single dose of the tocopherol or succinate analog was administered twenty four hours prior to orally administering 2.9 g CCl4 /kg body weight. Three to six animals were analyzed per treatment. The rats were monitored for seven days. […]

cultured rat hepatocytes = test: EMS-induced toxicity and lipid peroxidation in primary cultures of rat hepatocytes; format: cell-based; settings: for Cell Death / Lipid Peroxidation: 50 mM EMS, 6 hrs
Protocol: To confirm the cytoprotective properties of alpha-TP under physiological conditions in vitro tests using primary cultures of adult rat hepatocytes were conducted (another in vitro model system). Unlike the hepatocyte suspensions used for the in vitro modeling discussed above, cultured hepatocytes retain their in vivo cuboidal shape as a result of attachment to a collagen matrix, and their lifespan in vitro is 5 to 7 days, instead of 8-12 hours (as with suspensions).

rat hepatocytes [3] = test: ATP content of rat hepatocyte suspensions; format: cell-based
From the text: It is well known that the succinate molecule is utilized by the cell to produce ATP energy. In the tricarboxylic acid cycle, succinate is oxidized by succinate dehydrogenase to produce ATP. Oxidation occurs in the mitochondria and the mitochondria can utilize both succinate formed in the mitochondria or succinate transported to the mitochondria. Increasing ATP production may enhance cellular repair processes as well as normal metabolic processes. For example, the cell's ability to remove free intracellular Ca^2+ during a toxic insult is related to ATP production. Succinate administration stimulates gluconeogenesis to form glucose 6-phosphate which is used for producing energy anaerobically (ATP formation through glycolysis) and for producing reducing equivalents (NADPH formation through the hexose monophosphate shunt needed for lipid and nucleotide biosynthesis and other biosynthetic reductions and enzymatic reactions, e.g., glutathione reductase). An in vitro experiment was conducted to determine the relationship between the release of succinate from alpha-TS and the cellular ATP level. The experiment was performed by incubating a tocopherol analog in a rat hepatocyte suspension and measuring the ATP level at the beginning and end of the test.
as §2

liver [4] = test: CCl4 induced hepatotoxicity in rats (serum AST/ALT); format: in vivo, rat
Protocol: In vivo experiments were performed to determine if alpha-TS administration protects the liver from chemical toxicity. The liver is the target organ for CCl4. CCl4 is a hepatotoxic agent that induces centrilobular liver necrosis through its metabolism to free radicals. Male Sprague-Dawley rats were given an intraperitoneal dose (100 mg/kg) of a tocopherol analog 24 hours prior to a CCl4 challenge (2.9g/kg given by oral garage). Forty eight hours after the challenge, the rats were sacrificed and the levels of aspartate aminotransferase (AST) and alanine aminotransferase (ALT) were measured.
As discussed above, SGOT levels provide a clinical assessment of hepatotoxicity (liver damage).
Succinate analogs were administered to male Sprague-Dawley rats 20 hours prior to a 1 g CCl4 /kg body weight oral challenge and the AST and ALT serum enzyme levels were measured 48 hours after the challenge.
Similar to the experiments were described above, the ionizable congeners were administered to Sprague-Dawley rats by i.p. injection of a 100 mg ionizable congener/kg body weight dose 20 hours prior to oral administration of a 1 g/kg dose of CCl4, and the AST and ALT levels were measured 48 hours after the CCl4 challenge.

liver [5] = test: Partial liver ischemia/reperfusion-induced injury in rats; format: in vivo, rat; settings: dihydrocholesterol sulfate vs dihydrocholesterol plus sodium sulfate
Protocol: 20 hours prior to global occlusion, one group of 10 rats was provided with 64 mg cholesterol/kg body weight and 100 mg tris succinate/kg body weight by i.p. injection, and another group of 10 rats was provided with 100 mg cholesteryl succinate/kg body weight. A control group of rats was only partially occluded for the one hour period. Ninety percent of the rats pretreated with cholesteryl succinate tris salt survived while only 10% of those pretreated with the combination of cholesterol and tris succinate survived. Table 22 of a partial ischemia study where male Sprague-Dawley rats were subjected to occlusion of the blood supply to the left lateral and median lobes of the liver for 60 minutes followed by reperfusion for 24 hours. During this time, the normal blood supply to the other lobes of the liver was maintained. […] Serum was obtained for AST and ALT measurements.
^a Partial liver ischemia was induced in male Sprague Dawley rats

rat hepatocytes [6] = test: EMS-induced lipid peroxidation in rat hepatocyte suspensions; format: cell-based; settings: Rattus norvegicus, Hepatocyte; 25 μM, 50 mM EMS
Protocol: as §1, §2

[7] = Tissue distribution of alpha-tocopherol and alpha-tocopherol ester in rats; format: in vivo, rat; settings: 100 mg/kg ip, 24 h
Protocol: 100 mg/kg body weight of a tocopherol analog was administered to Sprague-Dawley rats using a peanut oil:ethanol vehicle (3:2). Twenty four hours later the rats were sacrificed and the accumulation of the tocopherol analog in the liver was determined.
A similar in vivo experiment to that discussed in conjunction with Table 5 was performed to determine if other tissues accumulate alpha-TS. Male Sprague-Dawley rats were given a 100 mg/kg dose of alpha-TS using a variety of chemical forms and vehicles. A variety of techniques were used to administer the alpha-TS. Twenty four hours later the rats were sacrificed and the tissues were tested for alpha-TS accumulation.

[8] = 100 mg/kg, single dose 24 h prior, CCl4 […]
[9] = 100 mg/kg ip (dihydrocholesterol 80 + sodium sulfate 30 mg/kg), 48 h after 1 g/kg CCl4 (Table 35)
[10] = 100 mg/kg ip, PEG 400 vehicle, 48 h after 1 g/kg CCl4 (Table 34)

Cc1c(C)c2c(c(C)c1OP(=O)(O)O)CCC(C)(CCCC(C)CCCC(C)CCCC(C)C)O2 (racemic) [alpha-TP, dl-alpha-tocopheryl phosphate]
minimal effective concentration (rat hepatocytes [1]; Rattus norvegicus, Hepatocyte, read-out: medium concentration with significant protection against EMS toxicity): ≥ 50 µM | cellular accumulation of alpha-TP (rat hepatocytes [2]; EMS): 2.68 nmols/10^6 cells | Days Survived After CCl4 Treatment (male Sprague-Dawley rats; [8]): 3 days | Cell Death (cultured rat hepatocytes; 25 μM): 16 ± 3% | Lipid Peroxidation (cultured rat hepatocytes; 25 μM): 2.5 ± 0.9 μmoles MDA/10^6 cells | Cell Death (cultured rat hepatocytes; 100 μM): 15 ± 3% | Lipid Peroxidation (cultured rat hepatocytes; 100 μM): 2.3 ± 0.1 μmoles MDA/10^6 cells | Cell Death (cultured rat hepatocytes; 250 μM): 20 ± 3% | Lipid Peroxidation (cultured rat hepatocytes; 250 μM): 1.7 ± 0.1 μmoles MDA/10^6 cells | cytoprotection at 3.5 mM extracellular Ca2+ (cultured rat hepatocytes; 3.5 mM Ca2+): eliminated | Rate of ATP Depletion (rat hepatocytes [3]; 50 μM): 2.0 ± 0.2 nmoles/10^6 cell/hr | Cellular ATP (rat hepatocytes [3]; 50 μM, 0 Hr): 19.4 ± 1.6 nmoles/10^6 cells | Cellular ATP (rat hepatocytes [3]; 50 μM, 6 Hr): 7.3 ± 0.2 nmoles/10^6 cells

CC(C)CCC[C@@H](C)[C@H]1CC[C@H]2[C@@H]3CC[C@H]4C[C@@H](OS(=O)(=O)O)CC[C@]4(C)[C@H]3CC[C@]12C [Dihydrocholesterol sulfate, sodium salt]
ALT (liver [4]; [9]): 0.02 ± 0.01 10^3 units/L | AST (liver [4]; [9]): 0.17 ± 0.04 10^3 units/L | ALT (liver [4]; [10]): 0.03 ± 0.03 10^3 units/L | AST (liver [4]; [10]): 0.15 ± 0.07 10^3 units/L | inhibition in vivo at 100 mg/kg (liver [4]; Rattus norvegicus, ip, 48 h, read-out: % Hepatoprotection): 100% | protection against CCl4 hepatotoxicity (in words) (liver [4]; rats, serum enzyme levels): complete protection against hepatotoxicity | ALT (liver [5]): 1305±568

Cc1c(C)c2c(c(C)c1O)CC[C@@](C)(CCC[C@H](C)CCC[C@H](C)CCCC(C)C)O2 [alpha-T, d-alpha-tocopherol, reference compound]
Protection From Toxic Injury (rat hepatocytes [1]; 25 μM): No | Protection From Toxic Injury (rat hepatocytes [1]; 50 μM): No | Protection From Toxic Injury (rat hepatocytes [1]; 250 μM): No | inhibition at 25 µM (rat hepatocytes [1]; Rattus norvegicus, Hepatocyte, 5 h, read-out: Percent Cytoprotection): 8 ± 10% | inhibition at 25 µM (rat hepatocytes [1]; Rattus norvegicus, Hepatocyte, read-out: % Protection): 19% | protection of hepatocytes against EMS (rat hepatocytes [1]; up to 250 μM): Protection was not afforded | inhibition at 25 µM (rat hepatocytes [6]): 9% | Hepatocyte Concentration Alpha-T (rat hepatocytes [2]; 25 μM): 2.1 ± 0.7 nmol/10^6 cells | Cellular alpha-T (rat hepatocytes [2]; 25 μM, Table 2): 2.6 nmoles/10^6 cells | Hepatocyte Concentration Alpha-T (rat hepatocytes [2]; 50 μM): 6.1 ± 0.7 nmol/10^6 cells | Hepatocyte Concentration Alpha-T (rat hepatocytes [2]; 250 μM): 23.7 ± 2.4 nmol/10^6 cells | Survival after CCl4 treatment (male Sprague-Dawley rats; 100 mg/kg ip 24 h prior, […] CCl4 oral): No | Protection from CCl4 (male Sprague-Dawley rats; 100 mg/kg ip (Table 5)): No | Days Survived After CCl4 Treatment (male Sprague-Dawley rats; 100 mg/kg ip, 24 h prior, CCl4 2.2 g/kg): 3 days | Days Survived After CCl4 Treatment (male Sprague-Dawley rats; 100 mg/kg ip, 24 h prior, CCl4 3.8 g/kg): 2 days | Days Survived After CCl4 Treatment (male Sprague-Dawley rats; 100 mg/kg ip, 24 h prior, CCl4 5.0 g/kg): 2 days | Days Survived After CCl4 Treatment (male Sprague-Dawley rats; 100 mg/kg ip, 24 h prior, CCl4 […]): 2 days | Days Survived After CCl4 Treatment (male Sprague-Dawley rats; [8]): 3 days | Days Survived after CCl4 (male Sprague-Dawley rats; CCl4 1.7 g/kg): three | Liver Concentration Alpha-T [7]: 128 ± 10 nmol/g | Rate of ATP Depletion (rat hepatocytes [3]; 25 μM): 1.5 ± 0.2 nmoles/10^6 cell/hr | Cellular ATP (rat hepatocytes [3]; 25 μM, 0 Hr): 15.2 ± 1.6 nmoles/10^6 cells | Cellular ATP (rat hepatocytes [3]; 25 μM, 6 Hr): 6.3 ± 0.8 nmoles/10^6 cells
